# In patent US12084399B2, “Crystalline tranilast salts and their pharmaceutical use” (NUFORMIX TECHNOLOGIES LIMITED, priority 2018, dated 2024):
# Structures can show the parent of a compound that is named as a salt. Where two headings read alike, the source gives them in different places.
# Key:
# [1] = Solid-state photostability study (UV irradiation, HPLC); conditions: for solid-state photostability (in words): UV irradiation up to 24 hours
# Description: A 6-10 mg sample of each of the tranilast forms under investigation was spread over the bottom surface of a clear glass vial.
# [2] = for Solubility (mg/ml) in terms of the mass of tranilast dissolved: water pH7.0, 25° C., 24 hours
# [3] = Solid-state accelerated stability, 40° C. and 75% relative humidity, 7 days, XRPD; assay type: physicochemical
# Description: A study was carried out to examine the physical stability of the crystalline 1:1 tranilast N-methylglucamine salt polymorphs with respect to solid form conversion over time under accelerated conditions. […] After this time each sample was analysed by XRPD to observe any potential form changes.
# A study was carried out to examine the physical stability of the 1:1 crystalline tranilast salts with respect to solid form conversion or deliquescence over time under accelerated conditions. […] Each sample was analysed by XRPD to observe any potential form changes.
# [4] = Solution photostability study (UV irradiation, HPLC); conditions: 2 mg dissolved in water (1 ml)
# Description: (§1) A 2 mg sample of the four salt forms under investigation were each weighed into a clear glass vial. Each sample was dissolved in water (1 ml).
# [5] = buffer, 2 mg/ml
# Description: as §1
# [6] = pKa values and ΔpKa of tranilast and the salt formers
# Description: When two solid components are successfully crystallised together to form a two-component molecular complex with a new unique solid-state crystalline structure this could result in either a salt or a cocrystal. Whether a salt or a cocrystal is formed is dependent on whether a proton transfer takes place between the two different components of the complex. If a proton is transferred from one component to the other resulting in ionic bonding then a crystalline salt results. If no proton transfer occurs and the components remain in their neutral state, held together only by hydrogen bonds, Van der Waals bonds etc, then a cocrystal is formed. Whether or not proton transfer takes place is governed by the difference in pKa values for the acidic and basic functional groups of each component.
# [7] = protonated basic functional group of the salt former; cited from earlier work
# [8] = Dissolution study in simulated intestinal fluid (FaSSIF V2); assay type: physicochemical; conditions: 50 ml FaSSIF V2, pH 6.5, 37° C.
# Description: For BCS class II drugs, such as tranilast, the rate of dissolution of the drug form used in the gastrointestinal media can be the controlling factor in the overall absorption and thus the bioavailability of an oral drug. This becomes even more influential as the dose of a drug increases. For conditions such as fibrosis or cancer where a higher dose of tranilast may be needed for successful treatment, finding a form of tranilast that has a high dissolution rate is important. […] Pat. […] The dissolution study was carried out using the Pion inForm® instrument. Detection and quantification of tranilast was performed by in-situ UV-spectroscopy using a fibre-optic probe, allowing instantaneous data collection from the point of sample introduction.
# [9] = Gravimetric vapour sorption (GVS) analysis; assay type: physicochemical; conditions: for moisture reversibly absorbed (GVS): across the 90% humidity range at 25° C.
# Description: The moisture sorption isotherm graph obtained for the crystalline 1:1 tranilast N-methylglucamine Form I salt is shown in FIG. 5.
# The moisture sorption isotherm graph obtained for the crystalline 1:1 tranilast N-methylglucamine Form II salt is shown in FIG. 10.
# [10] = cited from earlier work
# [11] = Solid-state stability under high storage temperature, 90° C., 7 days, XRPD; assay type: physicochemical; conditions: oven at 90° C.
# Description: A third study was carried out to explore the solid-state stability of the crystalline 1:1 tranilast N-methylglucamine salt polymorphs under high storage temperatures. Forms I and II of 1:1 tranilast N-methylglucamine salt (50 mg) were stored in an oven at 90° C. for 7 days. After this time each sample was analysed by XRPD to observe any potential form changes.
# [12] = Solid-state stability under high humidity, 25° C. and 100% relative humidity, 7 days, XRPD; assay type: physicochemical; conditions: sealed container
# Description: A second study was carried out to explore the solid-state stability of the crystalline 1:1 tranilast N-methylglucamine salt polymorphs under high humidity. Forms I and II of 1:1 tranilast N-methylglucamine salt (50 mg) were separately placed in a sealed container at 25° C. and 100% relative humidity and stored under these conditions for 7 days. After this time each sample was analysed by XRPD to observe any potential form changes.
# [13] = sealed container, 40° C. and 75% relative humidity, 7 days
smiles,measurement,setting,value
"CCNCC.COc1ccc(/C=C/C(=O)Nc2ccccc2C(=O)O)cc1OC [Tranilast Salt Diethylamine, Crystalline 1:1 Tranilast Diethylamine Salt]",solid-state photostability (in words),[1]; solid state,photostable
same,Solubility (mg/ml) in terms of the mass of tranilast dissolved,[2],18 to 20 mg/mL
same,deliquescence,[3]; [13],no signs of deliquescence
same,solid form conversion (XRPD),[3]; [13],retained their original crystalline form
NCCCC[C@H](N)C(=O)O [L-Lysine],% tranilast remaining after UV exposure,"[1]; solid state, 2 hrs",99.35%
same,% tranilast remaining after UV exposure,"[1]; solid state, 6 hrs",99.53%
same,% tranilast remaining after UV exposure,"[1]; solid state, 24 hrs",99.54%
same,Solubility (mg/ml) in terms of the mass of tranilast dissolved,[2],277 to 283 mg/mL
same,% tranilast remaining after UV exposure,[4]; 2 hrs,92.53%
same,% tranilast remaining after UV exposure,[4]; 6 hrs,55.98%
same,% tranilast remaining after UV exposure,[4]; 24 hrs,21.03%
CCNC[C@H](O)[C@@H](O)[C@H](O)[C@H](O)CO [N-ethylglucamine],% tranilast remaining after UV exposure,[1]; 2 h,99.55%
same,% tranilast remaining after UV exposure,[1]; 6 h,99.61%
same,% tranilast remaining after UV exposure,[1]; 24 h,99.47%
same,% tranilast remaining after UV exposure,[5]; 2 h,84.13%
same,% tranilast remaining after UV exposure,[5]; 6 h,58.20%
same,% tranilast remaining after UV exposure,[5]; 24 h,35.90%
same,ΔpKa,[6],6.27
same,pKa,[7],9.52
COc1ccc(/C=C/C(=O)Nc2ccccc2C(=O)O)cc1OC.NC(=O)c1cccnc1 [1:1 tranilast nicotinamide cocrystal],solubility reached after 30 seconds,[8]; 30 seconds,2700 µg/mL
same,solubility after 5 minutes,[8]; 5 minutes,1950 µg/mL
same,solubility after 20 minutes,[8]; 20 minutes,1700 µg/mL
CNC[C@H](O)[C@@H](O)[C@H](O)[C@H](O)CO [N-methylglucamine],ΔpKa,"[6]; pKa (protonated base) - pKa (acid), salt former versus tranilast",6.27
"CNC[C@H](O)[C@@H](O)[C@H](O)[C@H](O)CO.COc1ccc(/C=C/C(=O)Nc2ccccc2C(=O)O)cc1OC [Tranilast Salt N-methylglucamine Form II, Crystalline 1:1 Tranilast N-methylglucamine Form II Salt]",moisture reversibly absorbed (GVS),[9]; listed as crystalline 1:1 tranilast N-methylglucamine form II salt,0.42 % w/w
CCNCC [Diethylamine],% tranilast remaining after UV exposure,"[1]; solid state, 2 hrs",99.57%
same,% tranilast remaining after UV exposure,"[1]; solid state, 6 hrs",99.61%
same,% tranilast remaining after UV exposure,"[1]; solid state, 24 hrs",99.63%
same,% tranilast remaining after UV exposure,[4]; 2 hrs,92.06%
same,% tranilast remaining after UV exposure,[4]; 6 hrs,52.30%
same,% tranilast remaining after UV exposure,[4]; 24 hrs,20.72%
CNC[C@H](O)[C@@H](O)[C@H](O)[C@H](O)CO [N-methylglucamine Form II],% tranilast remaining after UV exposure,[1]; 2 h,99.50%
same,% tranilast remaining after UV exposure,[1]; 6 h,99.58%
same,% tranilast remaining after UV exposure,[1]; 24 h,99.51%
COc1ccc(/C=C/C(=O)Nc2ccccc2C(=O)O)cc1OC [crystalline 1:1 tranilast sodium salt],apparent solubility relative to pure crystalline tranilast (in words),[10],lower apparent solubility than pure tranilast
same,apparent solubility relative to pure crystalline tranilast (in words),[10]; listed as crystalline tranilast sodium salt,even less than that of pure tranilast
same,solubility at 20 minutes,"[8]; simulated intestinal fluid (FaSSIF V2), thermodynamic from solid, 20 minutes",300 µg/mL
"COc1ccc(/C=C/C(=O)Nc2ccccc2C(=O)[O-])cc1OC.O.[K+] [Tranilast Salt Potassium Monohydrate, Crystalline 1:1 Tranilast Potassium Monohydrate Salt]",deliquescence,[3]; [13],no signs of deliquescence
same,solid form conversion (XRPD),[3]; [13],retained their original crystalline form
"COc1ccc(/C=C/C(=O)Nc2ccccc2C(=O)O)cc1OC.OCCNCCO [Tranilast Salt Diethanolamine, Crystalline Tranilast Diethanolamine Salt]",deliquescence,[3]; [13],no signs of deliquescence
same,solid form conversion (XRPD),[3]; [13],retained their original crystalline form
"CNC[C@H](O)[C@@H](O)[C@H](O)[C@H](O)CO.COc1ccc(/C=C/C(=O)Nc2ccccc2C(=O)O)cc1OC [Tranilast Salt N-methylglucamine Form I, Crystalline 1:1 Tranilast N-methylglucamine Form I Salt]",aqueous solubility (mass of salt),[2]; pH 7,greater than 1000 mg/ml
same,solid form conversion (XRPD),[11],retained their original crystalline form
same,solid form conversion (XRPD),[3]; [13],retained their original crystalline form
same,solid form conversion (XRPD),[12],retained their original crystalline form
same,form conversion in GVS (XRPD),[9]; XRPD of the sample at 0% RH and 90% RH,did not demonstrate any form conversion
same,moisture reversibly absorbed (GVS),[9]; listed as crystalline 1:1 tranilast N-methylglucamine Form I salt,1.4 % w/w
NCCCC[C@H](N)C(=O)O [Lysine],ΔpKa,[6],5.70
"CCNC[C@H](O)[C@@H](O)[C@H](O)[C@H](O)CO.COc1ccc(/C=C/C(=O)Nc2ccccc2C(=O)O)cc1OC [Tranilast Salt N-ethylglucamine, Crystalline 1:1 Tranilast N-Ethylglucamine Salt]",deliquescence,[3]; [13],no signs of deliquescence
same,solid form conversion (XRPD),[3]; [13],retained their original crystalline form
"COc1ccc(/C=C/C(=O)Nc2ccccc2C(=O)O)cc1OC.NCCO [Tranilast Salt Ethanolamine, Crystalline Tranilast Ethanolamine Salt]",deliquescence,[3]; [13],no signs of deliquescence
same,solid form conversion (XRPD),[3]; [13],retained their original crystalline form
"COc1ccc(/C=C/C(=O)Nc2ccccc2C(=O)O)cc1OC.NCCCC[C@H](N)C(=O)O [Tranilast Salt L-Lysine, Crystalline 1:1 Tranilast L-Lysine Salt]",solid-state photostability (in words),[1]; solid state,photostable
same,deliquescence,[3],no signs of deliquescence
same,solid form conversion (XRPD),[3],retained their original crystalline form
